Measurements from ChEMBL document CHEMBL1201862, “PubChem BioAssay data set” (2004).
Active and inactive are the calls of the source.

Columns and labels:
[1] = molecular target: Beta-adrenergic receptor kinase 1 (Homo sapiens, UniProt P25098); experiment: GRK2 inhibitors displacing RNA aptamer, dose response, biochemical, flow cytometry beads, FAM-aptamer, powder set 1 (AID 588720)
HEK293 [2] = experiment: cells; conditions: Homo sapiens
[3] = ADAM10 inhibitors, peptide cleavage, dose response, biochemical, QFRET (AID 743254);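 also: ADAM10 enzyme with the DM2 quenched FRET peptide as substrate; EDANS fluorescence gain as the protease cuts the substrate; inhibitor potency against ADAM10 proteolytic activity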
HEK293 [4] = experiment: cells; conditions: Homo sapiens; remark: listed apart in the source
[5] = molecular target: Disintegrin and metalloproteinase domain-containing protein 17 (Homo sapiens, UniProt P78536); experiment: ADAM17 protease inhibitors, dose response, counter-screen for ADAM10 exosite inhibitor project, biochemical, quenched FRET substrate (AID 743253)
[6] = molecular target: Nucleotide-binding oligomerization domain-containing protein 1 (Homo sapiens, UniProt Q9Y239); experiment: NOD1 signaling inhibitors, SAR follow-up, revised (AID 2333); format: functional
HEK293 [7] = experiment: cytotoxicity in HEK293T NF-kB-Luc cells, SAR follow-up, cytotoxicity control for NF-kB activator project, cell-based, resazurin fluorescence (AID 493251); format: functional; conditions: Homo sapiens
HEK293 [8] = experiment: cells; format: functional, cell-based; conditions: Homo sapiens
HEK293 [9] = experiment: SAR Analysis of small molecule inhibitors of B-cell specific antigen receptor-induced NF-kB activation in a HEK-293T cell line using a luminescence assay - Set 2. [Related pubchem assays (depositor defined):AID435022, AID435025, AID489021]; format: functional, cell-based; conditions: Homo sapiens
[10] = molecular target: T1, Microphthalmia-associated transcription factor (Homo sapiens, UniProt O75030); experiment: TRPM1 promoter luciferase signal decrease, dose response, MITF inhibitor project, cell-based, SK-MEL-5, cherry-picked, set 3 (AID 493073); format: functional
T1 sequence (O75030 whole entry): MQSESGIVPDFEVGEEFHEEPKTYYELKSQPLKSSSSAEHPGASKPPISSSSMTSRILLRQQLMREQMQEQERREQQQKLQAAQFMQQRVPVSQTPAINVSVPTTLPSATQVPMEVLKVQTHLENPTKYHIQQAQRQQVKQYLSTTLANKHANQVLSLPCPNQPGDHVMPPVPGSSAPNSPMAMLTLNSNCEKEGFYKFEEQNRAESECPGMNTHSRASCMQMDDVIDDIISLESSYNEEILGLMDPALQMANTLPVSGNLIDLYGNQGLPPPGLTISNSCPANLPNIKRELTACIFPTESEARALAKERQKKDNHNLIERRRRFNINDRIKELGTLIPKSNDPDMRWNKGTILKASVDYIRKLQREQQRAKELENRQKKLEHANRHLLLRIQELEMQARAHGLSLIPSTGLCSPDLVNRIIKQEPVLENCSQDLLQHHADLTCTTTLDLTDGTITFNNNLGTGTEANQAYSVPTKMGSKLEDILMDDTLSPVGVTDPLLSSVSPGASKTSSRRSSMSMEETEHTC

HEK293 [11] = experiment: NOD1 signaling inhibitors, primary screen, cell-based, luminescence, uHTS (AID 1578); format: functional; conditions: Homo sapiens
[12] = molecular target: Nucleotide-binding oligomerization domain-containing protein 2 (Homo sapiens, UniProt Q9HC29); experiment: PubChem AID 2334; format: functional
HEK293 [13] = experiment: NOD2 signaling inhibitors in MDP-stimulated cells, cell-based, uHTS, luminescence (AID 2001); format: functional; conditions: Homo sapiens
[14] = cytotoxicity in HEK-293T cells, dose response, cytotoxicity control for BCR NF-kB inhibitor project, luminescence, B-cell screen hits (AID 489021); format: functional, cell-based;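 also: HEK-293T cells carrying an NF-kB luciferase reporter; cells exposed to compound for about 14 hours before viability readout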
HEK293 [15] = experiment: cells; format: functional, cell-based; conditions: Homo sapiens; remark: listed apart in the source
Jurkat = experiment: SAR Analysis of small molecule inhibitors of […] specific antigen receptor-induced NF-kB activation in a Jurkat cell line using a luminescence assay - Set 3. [Related pubchem assays (depositor defined):AID435022, AID435025, AID465]; format: functional, cell-based; conditions: Homo sapiens
HEK293 [16] = experiment: cells; conditions: Homo sapiens; remark: listed apart in the source
Tumor necrosis factor = Tumor necrosis factor (Homo sapiens, UniProt P01375); experiment: TNFa-triggered NF-kB activation inhibitors, SAR follow-up, cell-based, revised (AID 2337); format: functional
[17] = molecular target: G-protein coupled receptor 55 (Homo sapiens, UniProt Q9Y2T6); experiment: GPR55 antagonists, SAR follow-up, counter-screen for GPR35 antagonist project, imaging, image-based (AID 2397); format: functional
[18] = molecular target: G-protein coupled receptor 35 (Homo sapiens, UniProt Q9HC97); experiment: SAR Analysis for the identification of Selective Antagonists of ERK1/2 Activity in GPR35-Overexpressing U2OS Cells. [Related pubchem assays: 2079, 2058 ]; format: functional, cell-based
Chain of G-protein coupled receptor 35 (Q9HC97 whole entry): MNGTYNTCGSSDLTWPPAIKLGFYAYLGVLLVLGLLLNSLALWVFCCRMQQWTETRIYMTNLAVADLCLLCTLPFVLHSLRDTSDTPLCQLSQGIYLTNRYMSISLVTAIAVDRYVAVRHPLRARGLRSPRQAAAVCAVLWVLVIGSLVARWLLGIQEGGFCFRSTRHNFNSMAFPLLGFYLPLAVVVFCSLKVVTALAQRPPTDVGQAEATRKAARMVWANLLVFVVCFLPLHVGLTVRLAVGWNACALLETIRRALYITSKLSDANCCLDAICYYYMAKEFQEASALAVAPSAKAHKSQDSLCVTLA

Chain of Nucleotide-binding oligomerization domain-containing protein 2 (Q9HC29 whole entry, the tested form may be a part): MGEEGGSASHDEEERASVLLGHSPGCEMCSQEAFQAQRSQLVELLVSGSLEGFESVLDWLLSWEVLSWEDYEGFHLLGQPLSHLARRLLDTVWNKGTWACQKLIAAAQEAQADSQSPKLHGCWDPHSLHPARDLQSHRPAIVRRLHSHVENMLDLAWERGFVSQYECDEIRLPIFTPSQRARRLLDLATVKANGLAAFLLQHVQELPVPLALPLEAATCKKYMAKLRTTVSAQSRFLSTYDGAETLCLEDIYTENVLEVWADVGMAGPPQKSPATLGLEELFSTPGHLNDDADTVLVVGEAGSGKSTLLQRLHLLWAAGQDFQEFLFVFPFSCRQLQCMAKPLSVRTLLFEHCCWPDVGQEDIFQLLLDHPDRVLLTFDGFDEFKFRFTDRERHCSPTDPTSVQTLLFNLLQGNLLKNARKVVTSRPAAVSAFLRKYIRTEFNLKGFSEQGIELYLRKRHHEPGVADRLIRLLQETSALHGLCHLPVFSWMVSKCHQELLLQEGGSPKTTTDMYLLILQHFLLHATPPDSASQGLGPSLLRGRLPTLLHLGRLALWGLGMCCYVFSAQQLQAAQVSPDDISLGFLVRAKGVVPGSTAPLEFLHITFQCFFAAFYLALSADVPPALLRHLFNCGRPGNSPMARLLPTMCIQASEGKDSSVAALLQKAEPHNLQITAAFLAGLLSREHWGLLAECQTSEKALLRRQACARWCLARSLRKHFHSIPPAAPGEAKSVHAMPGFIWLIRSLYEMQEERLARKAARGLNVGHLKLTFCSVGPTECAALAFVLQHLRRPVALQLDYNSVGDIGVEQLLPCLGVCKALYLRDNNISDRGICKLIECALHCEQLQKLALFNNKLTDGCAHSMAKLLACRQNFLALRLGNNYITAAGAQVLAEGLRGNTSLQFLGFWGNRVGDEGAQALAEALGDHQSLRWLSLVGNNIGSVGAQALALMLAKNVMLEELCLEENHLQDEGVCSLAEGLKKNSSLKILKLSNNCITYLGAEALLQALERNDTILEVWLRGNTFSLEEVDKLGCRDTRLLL
Chain of Nucleotide-binding oligomerization domain-containing protein 1 (Q9Y239 whole entry, the tested form may be a part): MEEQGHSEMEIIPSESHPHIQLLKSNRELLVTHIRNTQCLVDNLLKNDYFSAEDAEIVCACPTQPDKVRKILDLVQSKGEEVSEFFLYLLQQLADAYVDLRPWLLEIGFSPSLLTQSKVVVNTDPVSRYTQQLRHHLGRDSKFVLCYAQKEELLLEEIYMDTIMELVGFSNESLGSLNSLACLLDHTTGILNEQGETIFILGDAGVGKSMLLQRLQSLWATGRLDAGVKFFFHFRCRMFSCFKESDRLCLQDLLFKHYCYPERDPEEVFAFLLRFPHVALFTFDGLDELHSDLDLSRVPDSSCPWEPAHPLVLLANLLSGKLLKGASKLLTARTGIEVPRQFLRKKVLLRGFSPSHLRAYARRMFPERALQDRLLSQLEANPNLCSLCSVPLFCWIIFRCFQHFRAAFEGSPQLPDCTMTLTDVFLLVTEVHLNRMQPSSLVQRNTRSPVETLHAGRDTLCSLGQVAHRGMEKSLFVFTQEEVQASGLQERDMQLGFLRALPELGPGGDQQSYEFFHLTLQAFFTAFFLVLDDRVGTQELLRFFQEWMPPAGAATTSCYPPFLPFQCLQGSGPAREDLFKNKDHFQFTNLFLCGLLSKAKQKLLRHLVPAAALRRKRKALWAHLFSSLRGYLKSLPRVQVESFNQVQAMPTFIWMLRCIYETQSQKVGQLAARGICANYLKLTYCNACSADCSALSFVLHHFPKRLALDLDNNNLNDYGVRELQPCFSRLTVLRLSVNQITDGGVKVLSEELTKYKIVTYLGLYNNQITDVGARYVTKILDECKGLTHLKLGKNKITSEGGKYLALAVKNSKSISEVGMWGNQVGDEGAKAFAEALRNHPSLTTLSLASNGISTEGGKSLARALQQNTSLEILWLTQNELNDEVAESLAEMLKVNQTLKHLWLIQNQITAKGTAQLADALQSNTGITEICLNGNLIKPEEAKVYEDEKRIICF
Chain of Tumor necrosis factor (P01375 whole entry): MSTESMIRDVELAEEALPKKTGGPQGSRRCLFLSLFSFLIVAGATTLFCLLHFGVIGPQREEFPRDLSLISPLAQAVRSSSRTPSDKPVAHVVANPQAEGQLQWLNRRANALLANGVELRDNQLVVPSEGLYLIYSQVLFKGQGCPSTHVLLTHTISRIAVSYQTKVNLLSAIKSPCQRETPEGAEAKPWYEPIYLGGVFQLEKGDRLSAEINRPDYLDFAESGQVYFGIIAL
Chain of Beta-adrenergic receptor kinase 1 (P25098 whole entry): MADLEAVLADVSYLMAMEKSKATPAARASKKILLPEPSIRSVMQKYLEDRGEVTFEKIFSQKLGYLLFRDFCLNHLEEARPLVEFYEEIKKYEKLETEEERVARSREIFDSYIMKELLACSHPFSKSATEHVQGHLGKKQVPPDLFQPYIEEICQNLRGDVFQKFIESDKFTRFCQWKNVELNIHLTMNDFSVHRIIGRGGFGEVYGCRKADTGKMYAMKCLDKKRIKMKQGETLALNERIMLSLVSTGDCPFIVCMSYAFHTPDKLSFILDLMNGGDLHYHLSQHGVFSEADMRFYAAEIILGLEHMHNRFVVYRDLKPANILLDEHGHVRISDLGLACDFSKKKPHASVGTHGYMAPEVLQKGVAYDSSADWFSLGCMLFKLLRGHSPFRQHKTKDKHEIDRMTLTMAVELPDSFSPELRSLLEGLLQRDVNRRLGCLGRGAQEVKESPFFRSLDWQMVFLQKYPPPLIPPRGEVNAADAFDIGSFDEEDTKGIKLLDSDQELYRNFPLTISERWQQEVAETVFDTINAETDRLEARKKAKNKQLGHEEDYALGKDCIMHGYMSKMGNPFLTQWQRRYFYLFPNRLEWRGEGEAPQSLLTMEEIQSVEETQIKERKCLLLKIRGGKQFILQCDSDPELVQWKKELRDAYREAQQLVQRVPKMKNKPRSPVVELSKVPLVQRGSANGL
Chain of Disintegrin and metalloproteinase domain-containing protein 17 (P78536 whole entry, the tested form may be a part): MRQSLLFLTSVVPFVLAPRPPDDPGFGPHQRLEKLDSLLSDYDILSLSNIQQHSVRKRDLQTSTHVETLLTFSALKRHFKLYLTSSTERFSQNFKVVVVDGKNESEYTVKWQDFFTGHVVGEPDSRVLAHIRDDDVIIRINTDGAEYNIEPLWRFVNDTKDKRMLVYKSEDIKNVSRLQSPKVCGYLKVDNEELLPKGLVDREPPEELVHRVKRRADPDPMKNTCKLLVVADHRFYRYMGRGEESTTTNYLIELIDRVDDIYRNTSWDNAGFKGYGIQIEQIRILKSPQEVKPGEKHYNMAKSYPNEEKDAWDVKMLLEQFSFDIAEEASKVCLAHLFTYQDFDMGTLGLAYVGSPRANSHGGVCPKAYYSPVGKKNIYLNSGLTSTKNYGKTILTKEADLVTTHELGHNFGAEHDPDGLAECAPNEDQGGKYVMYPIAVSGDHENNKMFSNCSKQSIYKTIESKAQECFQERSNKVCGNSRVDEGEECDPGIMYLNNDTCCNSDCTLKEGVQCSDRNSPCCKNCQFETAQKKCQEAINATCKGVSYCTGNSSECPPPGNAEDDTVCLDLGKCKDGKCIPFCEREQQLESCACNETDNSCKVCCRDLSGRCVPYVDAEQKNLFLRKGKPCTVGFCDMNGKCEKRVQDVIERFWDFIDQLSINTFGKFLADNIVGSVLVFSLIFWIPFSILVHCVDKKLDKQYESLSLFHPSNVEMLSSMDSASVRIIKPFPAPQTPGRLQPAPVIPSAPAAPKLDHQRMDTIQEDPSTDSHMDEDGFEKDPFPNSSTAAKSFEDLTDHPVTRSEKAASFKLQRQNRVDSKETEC
Chain of G-protein coupled receptor 55 (Q9Y2T6 whole entry): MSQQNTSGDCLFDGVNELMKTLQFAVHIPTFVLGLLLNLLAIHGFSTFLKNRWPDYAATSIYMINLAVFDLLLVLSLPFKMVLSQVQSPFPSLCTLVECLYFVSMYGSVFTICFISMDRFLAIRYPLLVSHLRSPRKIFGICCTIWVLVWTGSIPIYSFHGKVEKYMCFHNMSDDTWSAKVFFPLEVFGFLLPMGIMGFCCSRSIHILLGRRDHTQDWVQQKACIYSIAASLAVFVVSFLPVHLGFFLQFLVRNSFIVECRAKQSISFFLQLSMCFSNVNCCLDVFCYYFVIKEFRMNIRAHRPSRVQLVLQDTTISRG

Which EC50 [1] does the source give for `Cc1cccc(N2CCN(C(=O)CCS(=O)(=O)c3ccc(Br)cc3)CC2C)c1` (stereo not given) here?
Its EC50 is 2 µM (active).

With `O=S(=O)(NCC(Nc1ccc(Cl)cc1)c1ccccc1)c1ccc(Cl)cc1` (stereo not given) as the compound, how does the EC50 (HEK293 [2]) read?
Its EC50 is > 59.7 µM (inactive).

And the IC50 [3]?
Its IC50 is 11.7 µM (inactive).

And the EC50 (HEK293 [4])?
Its EC50 is > 59.7 µM (inactive).

And the IC50 [5]?
The IC50 was > 69.5 µM (inactive).

With `CC(C)(C)c1ccc(-c2noc(CCC(=O)NCc3ccco3)n2)cc1` as the compound, how does the IC50 [6] read?
Its IC50 is 3.68 µM (active).

What about the IC50 (HEK293 [7]) of the same compound?
The IC50 was 49.2 µM (inactive).

And the IC50 (HEK293 [8])?
The IC50 was > 20 µM (inactive).

And the IC50 (HEK293 [9])?
The IC50 was 2.39 µM (active).

And the AC50 [10]?
Its AC50 is 0.122 µM (active).

And the EC50 (HEK293 [11])?
The EC50 was 8.42 µM (active).

What about the IC50 [12] of the same compound?
Its IC50 is 2.16 µM (active).

And the IC50 (HEK293 [13])?
Its IC50 is > 20 µM (inactive).

What about the IC50 [14] of the same compound?
Its IC50 is > 80 µM (inactive).

What about the IC50 (HEK293 [15]) of the same compound?
Its IC50 is > 20 µM (inactive).

And the IC50 (Jurkat)?
Its IC50 is > 80 µM (inactive).

What about the IC50 (HEK293 [16]) of the same compound?
Its IC50 is > 20 µM (inactive).

What about the IC50 (Tumor necrosis factor) of the same compound?
The IC50 was 6.76 µM (active).

For `Cc1c(C(=O)Nc2ccc3c(c2)OCCO3)sc2ncnc(N3CCC(C)CC3)c12`, which IC50 [17] is on record?
The IC50 was 21.4 µM (inactive).

What about the IC50 [18] of the same compound?
Its IC50 is 20.6 µM (not active).
